ChEMBL document CHEMBL5143590, “Dihydropyrimidinone imidazoles as unique structural antibacterial agents for drug-resistant gram-negative pathogens” (Eur J Med Chem, 2022)
Converted amounts (≈) assume the structure as drawn.

Legend:
Assay type in all cases: functional
Staphylococcus aureus [1] = assay: Antibacterial activity against methicillin-resistant Staphylococcus aureus N315 assessed as inhibition of bacterial growth by two fold serial dilution method
Enterococcus faecalis = assay: Antibacterial activity against Enterococcus faecalis assessed as inhibition of bacterial growth by two fold serial dilution method
Staphylococcus aureus [2] = assay: Antibacterial activity against Staphylococcus aureus assessed as inhibition of bacterial growth by two fold serial dilution method
Staphylococcus aureus [3] = assay: Antibacterial activity against Staphylococcus aureus 25923 assessed as inhibition of bacterial growth by two fold serial dilution method
Staphylococcus aureus [4] = assay: Antibacterial activity against Staphylococcus aureus 29213 assessed as inhibition of bacterial growth by two fold serial dilution method
Klebsiella pneumoniae [5] = assay: Antibacterial activity against Klebsiella pneumoniae assessed as inhibition of bacterial growth by two fold serial dilution method
Escherichia coli [6] = assay: Antibacterial activity against Escherichia coli assessed as inhibition of bacterial growth by two fold serial dilution method
Escherichia coli [7] = assay: Antibacterial activity against Escherichia coli 25922 assessed as inhibition of bacterial growth by two fold serial dilution method
Pseudomonas aeruginosa [8] = assay: Antibacterial activity against Pseudomonas aeruginosa assessed as inhibition of bacterial growth by two fold serial dilution method
Pseudomonas aeruginosa [9] = assay: Antibacterial activity against Pseudomonas aeruginosa 27853 assessed as inhibition of bacterial growth by two fold serial dilution method
Acinetobacter baumannii [10] = assay: Antibacterial activity against Acinetobacter baumannii assessed as inhibition of bacterial growth by two fold serial dilution method
Candida albicans = assay: Antibacterial activity against Candida albicans 90023 assessed as inhibition of bacterial growth
Acinetobacter baumannii [11] = assay: Bactericidal activity against Acinetobacter baumannii assessed as fold increase in MIC value after 16 passages by two fold serial dilution method
Klebsiella pneumoniae [12] = assay: Bactericidal activity against Klebsiella pneumoniae assessed as fold increase in MIC value after 16 passages by two fold serial dilution method

Structure (SMILES) | MIC (Staphylococcus aureus [1]) [µg/mL] | MIC (Enterococcus faecalis) [µg/mL] | MIC (Staphylococcus aureus [2]) [µg/mL] | MIC (Staphylococcus aureus [3]) [µg/mL] | MIC (Staphylococcus aureus [4]) [µg/mL] | MIC (Klebsiella pneumoniae [5]) [µg/mL] | MIC (Escherichia coli [6]) [µg/mL] | MIC (Escherichia coli [7]) [µg/mL] | MIC (Pseudomonas aeruginosa [8]) [µg/mL] | MIC (Pseudomonas aeruginosa [9]) [µg/mL] | MIC (Acinetobacter baumannii [10]) [µg/mL] | MIC (Candida albicans) [µM] | fold change (FC) (Acinetobacter baumannii [11]) | fold change (FC) (Klebsiella pneumoniae [12])
CCCCc1nc(Cl)c(C2NC(=O)NC(C)=C2C(=O)OCC)n1S(=O)(=O)c1ccc(C(F)(F)F)cc1 (stereo not given) | 8 (≈ 14.6 µM) | 16 (≈ 29.1 µM) | 64 (≈ 117 µM) | 32 (≈ 58.3 µM) | 8 (≈ 14.6 µM) | 64 (≈ 117 µM) | 32 (≈ 58.3 µM) | 64 (≈ 117 µM) | 32 (≈ 58.3 µM) | 64 (≈ 117 µM) | 16 (≈ 29.1 µM) |  |  | 
O=c1nc(N(Cc2ccc(Cl)c(Cl)c2)CC(O)(Cn2cncn2)c2ccc(F)cc2F)c(F)c[nH]1 (stereo not given) |  |  |  |  |  |  |  |  |  |  |  | 8 (≈ 4.2 µg/mL) |  | 
CCCCc1nc(Cl)c(C2NC(=O)NC(C)=C2C(=O)OCC)n1CCC (stereo not given) | 64 (≈ 167 µM) | 32 (≈ 83.6 µM) | 16 (≈ 41.8 µM) | 64 (≈ 167 µM) | 128 (≈ 334 µM) | 64 (≈ 167 µM) | 64 (≈ 167 µM) | 32 (≈ 83.6 µM) | 32 (≈ 83.6 µM) | 64 (≈ 167 µM) | 64 (≈ 167 µM) |  |  | 
CCn1cc(C(=O)O)c(=O)c2cc(F)c(N3CCNCC3)cc21 [NORFLOXACIN] | 16 (≈ 50.1 µM) | 4 (≈ 12.5 µM) | 2 (≈ 6.26 µM) | 1 (≈ 3.13 µM) | 2 (≈ 6.26 µM) | 4 (≈ 12.5 µM) | 16 (≈ 50.1 µM) | 8 (≈ 25.1 µM) | 2 (≈ 6.26 µM) | 0.5 (≈ 1.57 µM) | 8 (≈ 25.1 µM) |  | 32 | 32
C=CCn1c(CCCC)nc(Cl)c1C1NC(=O)NC(C)=C1C(=O)OCC (stereo not given) | 64 (≈ 168 µM) | 64 (≈ 168 µM) | 32 (≈ 84 µM) | 128 (≈ 336 µM) | 64 (≈ 168 µM) | 64 (≈ 168 µM) | 64 (≈ 168 µM) | 64 (≈ 168 µM) | 64 (≈ 168 µM) | 128 (≈ 336 µM) | 64 (≈ 168 µM) |  |  | 
CCCCc1nc(Cl)c(C2NC(=O)NC(C)=C2C(=O)OCC)n1Cc1cccc(Cl)c1 (stereo not given) | 64 (≈ 138 µM) | 64 (≈ 138 µM) | 64 (≈ 138 µM) | 32 (≈ 68.8 µM) | 64 (≈ 138 µM) | 32 (≈ 68.8 µM) | 64 (≈ 138 µM) | 32 (≈ 68.8 µM) | 128 (≈ 275 µM) | 64 (≈ 138 µM) | 32 (≈ 68.8 µM) |  |  | 
CCCCc1nc(Cl)c(C2NC(=O)NC(C)=C2C(=O)OCC)n1Cc1ccc(Cl)cc1 (stereo not given) | 64 (≈ 138 µM) | 64 (≈ 138 µM) | 64 (≈ 138 µM) | 64 (≈ 138 µM) | 64 (≈ 138 µM) | 64 (≈ 138 µM) | 64 (≈ 138 µM) | 64 (≈ 138 µM) | 128 (≈ 275 µM) | 64 (≈ 138 µM) | 32 (≈ 68.8 µM) |  |  | 
CCCCc1nc(Cl)c(C2NC(=O)NC(CN(c3ccc(OC)nn3)S(=O)(=O)c3ccc(N)cc3)=C2C(=O)OCC)[nH]1 (stereo not given) | 32 (≈ 51.7 µM) | 64 (≈ 103 µM) | 32 (≈ 51.7 µM) | 64 (≈ 103 µM) | 64 (≈ 103 µM) | 16 (≈ 25.8 µM) | 128 (≈ 207 µM) | 64 (≈ 103 µM) | 128 (≈ 207 µM) | 16 (≈ 25.8 µM) | 64 (≈ 103 µM) |  |  | 
